In ChEMBL document CHEMBL1201862, “PubChem BioAssay data set” (2004):
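Exposure lasted 48 hours, with cells grown in 96-well plates and compounds tested at five concentrations. The concentration for 50% growth inhibition is given as GI50.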 Activity calls are given as the source filed them. Rule as the data show it: active = GI50 up to about 1.1 µM and inactive = higher.

How the values were obtained:
Assay in all cases: NCI-60 cell line screen, 48 h
HOP-62 = tested on: HOP-62
RXF 393 = tested on: RXF 393
MDA-N = tested on: MDA-N
HOP-92 = tested on: HOP-92
BT-549 = tested on: BT-549
KM12 = tested on: KM12
HCC 2998 = tested on: HCC 2998
TK-10 = tested on: TK-10
HCT-15 = tested on: HCT-15
PC-3 = tested on: PC-3
SK-MEL-28 = tested on: SK-MEL-28
MDA-MB-231 = tested on: MDA-MB-231
Hs-578T = tested on: Hs-578T
T47D = tested on: T47D
UO-31 = tested on: UO-31
Malme-3M = tested on: Malme-3M
SR = tested on: SR
786-0 = tested on: 786-0
SK-MEL-2 = tested on: SK-MEL-2
NCI-H522 = tested on: NCI-H522
MDA-MB-435 = tested on: MDA-MB-435
DU-145 = tested on: DU-145
SNB-19 = tested on: SNB-19
SK-OV-3 = tested on: SK-OV-3
NCI-H226 = tested on: NCI-H226
M14 = tested on: M14
NCI-H460 = tested on: NCI-H460
U-251 = tested on: U-251
UACC-62 = tested on: UACC-62
OVCAR-3 = tested on: OVCAR-3
OVCAR-4 = tested on: OVCAR-4
HCT-116 = tested on: HCT-116
CCRF-CEM = tested on: CCRF-CEM
UACC-257 = tested on: UACC-257
IGROV-1 = tested on: IGROV-1
SF-295 = tested on: SF-295
COLO 205 = tested on: COLO 205
ACHN = tested on: ACHN
CAKI-1 = tested on: CAKI-1
K562 = tested on: K562
A498 = tested on: A498
LOX IMVI = tested on: LOX IMVI
RPMI-8226 = tested on: RPMI-8226
OVCAR-8 = tested on: OVCAR-8
SK-MEL-5 = tested on: SK-MEL-5
HL-60 = tested on: HL-60
HT-29 = tested on: HT-29
EKVX = tested on: EKVX
NCI-H23 = tested on: NCI-H23
MCF7 = tested on: MCF7
OVCAR-5 = tested on: OVCAR-5
SNB-75 = tested on: SNB-75
SF-268 = tested on: SF-268
MOLT-4 = tested on: MOLT-4
NCI/ADR-RES = tested on: NCI/ADR-RES
SF-539 = tested on: SF-539
A549 = tested on: A549
SW-620 = tested on: SW-620
SN12C = tested on: SN12C

COC1C=COC2(C)Oc3c(C)c(O)c4c(c3C2=O)/C(=N/C2CCC(O)OC2C)C=C(NC(=O)/C(C)=C\C(=O)C2CC2C(O)C(C)C(O)C(C)C(OC(C)=O)C1C)C4=O (configuration not stated)
GI50 (HOP-62): 3040 nM (inactive) | GI50 (RXF 393): 1860 nM (inactive) | GI50 (MDA-N): 1880 nM (inactive) | GI50 (HOP-92): 2070 nM (inactive) | GI50 (BT-549): 2440 nM (inactive) | GI50 (KM12): 2840 nM (inactive) | GI50 (HCC 2998): 2470 nM (inactive) | GI50 (TK-10): 2900 nM (inactive) | GI50 (HCT-15): 2940 nM | GI50 (PC-3): 2300 nM (inactive) | GI50 (SK-MEL-28): 2050 nM (inactive) | GI50 (MDA-MB-231): 2070 nM (inactive) | GI50 (Hs-578T): 2410 nM (inactive) | GI50 (T47D): 2690 nM (inactive) | GI50 (UO-31): 2520 nM (inactive) | GI50 (Malme-3M): 1690 nM (inactive) | GI50 (SR): 1700 nM (inactive) | GI50 (786-0): 1660 nM (inactive) | GI50 (SK-MEL-2): 3480 nM (inactive) | GI50 (NCI-H522): 946 nM (active) | GI50 (MDA-MB-435): 1790 nM (inactive) | GI50 (DU-145): 2540 nM (inactive) | GI50 (SNB-19): 3470 nM (inactive) | GI50 (SK-OV-3): 7960 nM (inactive) | GI50 (NCI-H226): 2650 nM (inactive) | GI50 (M14): 1970 nM (inactive) | GI50 (NCI-H460): 3260 nM (inactive) | GI50 (U-251): 2770 nM (inactive) | GI50 (UACC-62): 2010 nM (inactive) | GI50 (OVCAR-3): 365 nM (active) | GI50 (OVCAR-4): 3090 nM (inactive) | GI50 (HCT-116): 1790 nM (inactive) | GI50 (CCRF-CEM): 474 nM (active) | GI50 (UACC-257): 2220 nM (inactive) | GI50 (IGROV-1): 2400 nM (inactive) | GI50 (SF-295): 3720 nM (inactive) | GI50 (COLO 205): 1330 nM (inactive) | GI50 (ACHN): 3130 nM (inactive) | GI50 (CAKI-1): 3240 nM (inactive) | GI50 (K562): 2220 nM (inactive) | GI50 (A498): 3050 nM (inactive) | GI50 (LOX IMVI): 1610 nM (inactive) | GI50 (RPMI-8226): 962 nM (active) | GI50 (OVCAR-8): 1690 nM (inactive) | GI50 (SK-MEL-5): 1950 nM (inactive) | GI50 (HL-60): 2140 nM (inactive) | GI50 (HT-29): 1150 nM (inactive) | GI50 (EKVX): 3130 nM (inactive) | GI50 (NCI-H23): 1790 nM (inactive) | GI50 (MCF7): 1890 nM (inactive) | GI50 (OVCAR-5): 2880 nM (inactive) | GI50 (SNB-75): 3090 nM (inactive) | GI50 (SF-268): 2970 nM (inactive) | GI50 (MOLT-4): 1940 nM (inactive) | GI50 (NCI/ADR-RES): 14200 nM (inactive) | GI50 (SF-539): 2330 nM (inactive) | GI50 (A549): 3480 nM (inactive) | GI50 (SW-620): 1880 nM (inactive) | GI50 (SN12C): 1610 nM (inactive)

CCOC(=O)C(SCCO)C(C(=O)OCC)n1cc(C)c(=O)[nH]c1=O (configuration not stated)
GI50 (HOP-62): > 61200 nM (inactive) | GI50 (RXF 393): 17000 nM (inactive) | GI50 (MDA-N): 15100 nM (inactive) | GI50 (HOP-92): 15600 nM (inactive) | GI50 (BT-549): 23600 nM (inactive) | GI50 (KM12): 25800 nM (inactive) | GI50 (HCC 2998): 27400 nM (inactive) | GI50 (TK-10): 24900 nM (inactive) | GI50 (HCT-15): 4410 nM | GI50 (PC-3): 13900 nM (inactive) | GI50 (SK-MEL-28): 19400 nM (inactive) | GI50 (MDA-MB-231): 15900 nM (inactive) | GI50 (Hs-578T): 63400 nM (inactive) | GI50 (T47D): 19600 nM (inactive) | GI50 (UO-31): 22900 nM (inactive) | GI50 (Malme-3M): 15400 nM (inactive) | GI50 (SR): 6920 nM (inactive) | GI50 (786-0): 3880 nM (inactive) | GI50 (SK-MEL-2): 19600 nM (inactive) | GI50 (NCI-H522): 3300 nM (inactive) | GI50 (MDA-MB-435): 14300 nM (inactive) | GI50 (DU-145): > 74600 nM (inactive) | GI50 (SNB-19): 62100 nM (inactive) | GI50 (SK-OV-3): > 79300 nM (inactive) | GI50 (NCI-H226): > 32700 nM (inactive) | GI50 (M14): 11600 nM (inactive) | GI50 (NCI-H460): 21500 nM (inactive) | GI50 (U-251): 11500 nM (inactive) | GI50 (UACC-62): 16300 nM (inactive) | GI50 (OVCAR-3): 12500 nM (inactive) | GI50 (OVCAR-4): 23000 nM (inactive) | GI50 (HCT-116): 7410 nM (inactive) | GI50 (CCRF-CEM): 2420 nM (inactive) | GI50 (UACC-257): 28200 nM (inactive) | GI50 (IGROV-1): 25400 nM (inactive) | GI50 (SF-295): > 79400 nM (inactive) | GI50 (COLO 205): 10000 nM (inactive) | GI50 (ACHN): 8750 nM (inactive) | GI50 (CAKI-1): 4440 nM (inactive) | GI50 (K562): 3480 nM (inactive) | GI50 (A498): 20400 nM (inactive) | GI50 (LOX IMVI): 6840 nM (inactive) | GI50 (RPMI-8226): 7890 nM (inactive) | GI50 (OVCAR-8): 14100 nM (inactive) | GI50 (SK-MEL-5): 23200 nM (inactive) | GI50 (HL-60): 2120 nM (inactive) | GI50 (HT-29): 12900 nM (inactive) | GI50 (EKVX): 30700 nM (inactive) | GI50 (NCI-H23): 21200 nM (inactive) | GI50 (MCF7): 11600 nM (inactive) | GI50 (OVCAR-5): 15000 nM (inactive) | GI50 (SNB-75): 34100 nM (inactive) | GI50 (SF-268): 29300 nM (inactive) | GI50 (MOLT-4): 4810 nM (inactive) | GI50 (NCI/ADR-RES): 24800 nM (inactive) | GI50 (SF-539): 23100 nM (inactive) | GI50 (A549): 52800 nM (inactive) | GI50 (SW-620): 5960 nM (inactive) | GI50 (SN12C): 10700 nM (inactive)

C=CCNC1=C2C[C@@H](C)C[C@H](OC)[C@H](O)[C@@H](C)/C=C(\C)[C@H](OC(N)=O)[C@@H](OC)/C=C\C=C(/C)C(=O)NC(=CC1=O)C2=O [TANESPIMYCIN]
GI50 (HOP-62): 150 nM (active) | GI50 (RXF 393): 81.3 nM (active) | GI50 (MDA-N): 19.9 nM (active) | GI50 (HOP-92): 3690 nM (inactive) | GI50 (BT-549): 5730 nM (inactive) | GI50 (KM12): 16.5 nM (active) | GI50 (HCC 2998): 66.4 nM (active) | GI50 (TK-10): 88.1 nM (active) | GI50 (HCT-15): 204 nM | GI50 (PC-3): 47 nM (active) | GI50 (SK-MEL-28): 396 nM (active) | GI50 (MDA-MB-231): 1110 nM (active) | GI50 (Hs-578T): 575 nM (active) | GI50 (T47D): 847 nM (active) | GI50 (UO-31): 428 nM (active) | GI50 (Malme-3M): 61.9 nM (active) | GI50 (SR): 15.8 nM (active) | GI50 (786-0): 63.8 nM (active) | GI50 (SK-MEL-2): 292 nM (active) | GI50 (NCI-H522): 43.1 nM (active) | GI50 (MDA-MB-435): 42.7 nM (active) | GI50 (DU-145): 56.9 nM (active) | GI50 (SNB-19): 525 nM (active) | GI50 (SK-OV-3): 26.2 nM (active) | GI50 (NCI-H226): 4490 nM (inactive) | GI50 (M14): 21.4 nM (active) | GI50 (NCI-H460): 13.6 nM (active) | GI50 (U-251): 158 nM (active) | GI50 (UACC-62): 32.6 nM (active) | GI50 (OVCAR-3): 115 nM (active) | GI50 (OVCAR-4): 4390 nM (inactive) | GI50 (HCT-116): 31.1 nM (active) | GI50 (CCRF-CEM): 493 nM (active) | GI50 (UACC-257): 53.2 nM (active) | GI50 (IGROV-1): 33.1 nM (active) | GI50 (SF-295): 74.5 nM (active) | GI50 (COLO 205): 12.4 nM (active) | GI50 (ACHN): 127 nM (active) | GI50 (CAKI-1): 1290 nM (inactive) | GI50 (K562): 40.5 nM (active) | GI50 (A498): 5070 nM (inactive) | GI50 (LOX IMVI): 18.6 nM (active) | GI50 (RPMI-8226): 73.1 nM (active) | GI50 (OVCAR-8): 60.7 nM (active) | GI50 (SK-MEL-5): 25.9 nM (active) | GI50 (HL-60): 48.9 nM (active) | GI50 (HT-29): 11.3 nM (active) | GI50 (EKVX): 4010 nM (inactive) | GI50 (NCI-H23): 14 nM (active) | GI50 (MCF7): 13.7 nM (active) | GI50 (OVCAR-5): 177 nM (active) | GI50 (SNB-75): 17.3 nM (active) | GI50 (SF-268): 593 nM (active) | GI50 (MOLT-4): 527 nM (active) | GI50 (NCI/ADR-RES): 5690 nM (inactive) | GI50 (SF-539): 42.8 nM (active) | GI50 (A549): 36.9 nM (active) | GI50 (SW-620): 279 nM (active) | GI50 (SN12C): 30.8 nM (active)
